The values below come from patent US8088800B2, “4-(5-aminomethyl)-indole-1-ylmethyl)-benzamide derivatives and related compounds as opioid receptor antagonists for the treatment of obesity” (Eli Lilly and Company, priority 2004, dated 2012).

One test concerns the target delta opioid receptor (Homo sapiens, UniProt P41143). Kind of test: opioid receptor binding assay (Ki), delta.
The target of a further test is mu opioid receptor (Homo sapiens, UniProt P35372). Kind of test: opioid receptor binding assay (Ki), mu.
A further test has as its target kappa opioid receptor (Homo sapiens, UniProt P41145). Kind of test: opioid receptor binding assay (Ki), kappa.
Test [1] addresses T1, cloned human delta opioid receptor (Homo sapiens, UniProt P41143).
T1 construct: expressed in transfected cells
Nature of the test: GTP-γ-S binding assay, antagonist potency (Kb), delta. In kind it is biochemical. Particulars: functional antagonist potency vs DPDPE 30 nM; Cheng-Prusoff. How it is done: (§1) The functional antagonist potency (Kb) of the sample compounds was determined using the GTPγS binding assay. GTPgS-based functional assays provide an in vitro measure of the activity of opioid agonists and antagonists. Opioid reference compounds or test compound are incubated with membrane homogenate from cells expressing the cloned human mu, kappa or delta opioid receptor and radiolabeled [35S]GTPgS. If the compound activates the opioid receptor, an increase in the binding of radiolabeled GTPgS is observed. […] These tests provide an in vitro measurement of the activity of the compound at human opioid receptors.
(§2) An SPA-based GTP-γ-S assay format was developed based on previous opioid (Emmerson et al., J. Pharm Exp Ther 278,1121,1996; Horng et al., Society for Neuroscience Abstracts, 434.6, 2000) and muscarinic (DeLapp et al., JPET 289, 946, 1999) assay formats. Membranes were resuspended in 20 mM HEPES, 100 mM NaCl, 5 mM MgCl2, 1 mM DTT, and 1 mM EDTA. Fifty (50) […] of GTP-γ-[35S], compound, membrane suspension (20 microgram/well), and wheat germ agglutinin coated SPA beads (1 mg/well) were added to clear bottom 96 well assay plates. GDP ([…]) was added to the membrane solution prior to addition to the assay plates. Plates were sealed and incubated for four hours at room temperature then placed in a refrigerator overnight to allow the beads to settle. Signal stability at 4° C. was determined to be >60 hours. Plates were warmed to room temperature and counted in a Wallac Microbeta scintillation counter. For antagonist assays, specific agonists were added at the following concentrations: (MOR) DAMGO 1 micromolar, (DOR) DPDPE 30 nM, (KOR) U69593 300 nM. Kb's were determined by Cheng-Prusoff equation (see Cheng and Prusoff, Biochem. Pharmacol. 22, 3099, 1973).
Background: GTPγS resists hydrolysis and so accumulates on activated G proteins.

In test [2] the target is T2, cloned human kappa opioid receptor (Homo sapiens, UniProt P41145).
T2 construct: expressed in transfected cells
Kind of test: GTP-γ-S binding assay, antagonist potency (Kb), kappa. In kind it is biochemical. Particulars: functional antagonist potency vs U69593 300 nM; Cheng-Prusoff. As to the method: as §1, §2

For test [3], the target named is T3, cloned human mu opioid receptor (Homo sapiens, UniProt P35372).
T3 construct: expressed in transfected cells
Nature of the test: GTP-γ-S binding assay, antagonist potency (Kb), mu. It counts as biochemical. Particulars: functional antagonist potency vs DAMGO 1 micromolar; Cheng-Prusoff. How it is done: as §1, §2

Sequence of delta opioid receptor (P41143 whole entry): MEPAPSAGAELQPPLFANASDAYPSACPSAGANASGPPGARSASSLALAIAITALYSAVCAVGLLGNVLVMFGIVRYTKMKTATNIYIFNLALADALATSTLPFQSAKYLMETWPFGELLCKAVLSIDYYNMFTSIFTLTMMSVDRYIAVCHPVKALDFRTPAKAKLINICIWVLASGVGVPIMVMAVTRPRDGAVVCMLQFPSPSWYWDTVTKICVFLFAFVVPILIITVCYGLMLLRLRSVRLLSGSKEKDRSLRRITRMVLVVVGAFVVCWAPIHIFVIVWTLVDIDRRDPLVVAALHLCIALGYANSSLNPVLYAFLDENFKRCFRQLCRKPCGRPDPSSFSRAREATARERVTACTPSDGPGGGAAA
T1 sequence (P41143 whole entry): as above
Sequence of mu opioid receptor (P35372 whole entry): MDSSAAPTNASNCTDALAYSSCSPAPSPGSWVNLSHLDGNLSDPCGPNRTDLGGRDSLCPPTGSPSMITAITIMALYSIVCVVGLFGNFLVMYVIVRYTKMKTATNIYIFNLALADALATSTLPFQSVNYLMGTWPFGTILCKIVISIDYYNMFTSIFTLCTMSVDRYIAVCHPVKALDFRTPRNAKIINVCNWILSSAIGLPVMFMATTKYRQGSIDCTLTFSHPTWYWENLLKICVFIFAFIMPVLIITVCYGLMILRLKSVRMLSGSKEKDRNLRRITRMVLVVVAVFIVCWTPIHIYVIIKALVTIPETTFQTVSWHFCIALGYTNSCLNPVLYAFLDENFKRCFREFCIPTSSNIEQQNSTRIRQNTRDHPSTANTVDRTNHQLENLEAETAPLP
T3 sequence (P35372 whole entry): as above
Sequence of kappa opioid receptor (P41145 whole entry): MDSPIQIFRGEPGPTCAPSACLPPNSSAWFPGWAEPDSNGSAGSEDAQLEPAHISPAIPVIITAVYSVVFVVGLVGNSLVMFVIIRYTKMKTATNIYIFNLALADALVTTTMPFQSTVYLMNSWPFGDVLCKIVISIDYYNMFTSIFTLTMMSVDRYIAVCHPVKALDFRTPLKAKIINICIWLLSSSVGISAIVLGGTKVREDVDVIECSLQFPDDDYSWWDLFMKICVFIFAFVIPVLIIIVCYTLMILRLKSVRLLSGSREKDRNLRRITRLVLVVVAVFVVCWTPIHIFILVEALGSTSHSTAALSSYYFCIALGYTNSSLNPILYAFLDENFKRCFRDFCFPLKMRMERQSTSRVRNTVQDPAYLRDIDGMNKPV
T2 sequence (P41145 whole entry): as above

In the case of `NC(=O)c1ccc(Cn2ccc3cc(CNCCO)ccc32)cc1` [Example 10, 4-{5-[(2-Hydroxy-ethylamino)-methyl]-indol-1-ylmethyl}-benzamide], the Ki at delta opioid receptor was greater than 5000 nM; at mu opioid receptor it was 478 nM; on kappa opioid receptor it was 3190 nM.

Consider `NC(=O)c1ccc(Cn2ccc3cc(CNCCc4cccs4)ccc32)cc1` [Example 2, 4-{5-[(2-Thiophen-2-yl-ethylamino)-methyl]-indol-1-ylmethyl}-benzamide], for which the Ki at delta opioid receptor was 154 nM; on mu opioid receptor, 21.3 nM; on kappa opioid receptor it was 411 nM. In addition, the Kb worked out at 15 nM in test [1], 50.1 nM in test [2] and 2 nM in test [3].

Turning to `NC(=O)c1ccc(CN2CCc3cc(CNCCc4cccs4)ccc32)cc1` [Example 4, 4-{5-[(2-Thiophen-2-yl-ethylamino)-methyl]-2,3-dihydro-indol-1-ylmethyl}-benzamide], the Ki on delta opioid receptor was 111 nM; at mu opioid receptor, 13.4 nM; on kappa opioid receptor, 226 nM. Besides, the Kb in test [1] was 19.2 nM; in test [2] it was greater than 42 nM; in test [3] it was 2.1 nM.

For the compound `NC(=O)c1ccc(Cn2ccc3cc(CNCCc4ccccc4F)ccc32)cc1` [Example 9, 4-(5-{[2-(2-Fluoro-phenyl)-ethylamino]-methyl}-indol-1-ylmethyl)-benzamide], the Ki at delta opioid receptor amounted to 144 nM; on mu opioid receptor, 20.8 nM; on kappa opioid receptor, 332 nM. In addition, the Kb in test [1] is 20.7 nM; in test [2] it was greater than 35 nM; in test [3] it was 6.2 nM.

As for `CC(C)CCNCc1ccc2c(ccn2Cc2ccc(C(N)=O)cc2)c1` [Example 1, 4-{5-[(3-Methyl-butylamino)-methyl]-indol-1-ylmethyl}-benzamide], the inhibition constant Ki on delta opioid receptor came to 170 nM; on mu opioid receptor, 18.1 nM; at kappa opioid receptor it was 362 nM. Also, the Kb in test [1] was found to be 21.7 nM; in test [2], 59.9 nM; in test [3] it was 4.2 nM.

`COc1ccc(CCNCc2ccc3c(ccn3Cc3ccc(C(N)=O)cc3)c2)cc1` [Example 11, 4-(5-{[2-(4-Methoxy-phenyl)-ethylamino]-methyl}-indol-1-ylmethyl)-benzamide]: the Ki at delta opioid receptor was 2550 nM; at mu opioid receptor, 319 nM; at kappa opioid receptor it was 1110 nM. Further, the Kb in test [1] was greater than 50 nM; in test [2], greater than 42 nM; in test [3], 8.4 nM.

For `CC(C)(C)CCNCc1ccc2c(ccn2Cc2ccc(C(N)=O)cc2)c1` [Example 3, 4-{5-[(3,3-Dimethyl-butylamino)-methyl]-indol-1-ylmethyl}-benzamide], the Ki on delta opioid receptor was found to be 98.2 nM; at mu opioid receptor it was 15.6 nM; on kappa opioid receptor it was 106 nM. For the same compound, the antagonist dissociation constant (Kb) in test [1] turned out to be 19.2 nM; in test [2] it was 50.5 nM; in test [3], 4.4 nM.

Regarding `NC(=O)c1ccc(Cn2ccc3cc(CNCCCc4ccccc4)ccc32)cc1` [Example 8, 4-{5-[(3-Phenyl-propylamino)-methyl]-indol-1-ylmethyl}-benzamide], the Ki on delta opioid receptor worked out at 633 nM; at mu opioid receptor, 59.3 nM; at kappa opioid receptor it was 304 nM.

With `CCCCCCNCc1ccc2c(ccn2Cc2ccc(C(N)=O)cc2)c1` [Example 7, 4-(5-Hexylaminomethyl-indol-1-ylmethyl)-benzamide], the Ki at delta opioid receptor was found to be 176 nM; at mu opioid receptor, 22.1 nM; at kappa opioid receptor it was 345 nM. Besides, the antagonist equilibrium constant (Kb) in test [1] was 27.4 nM; in test [2], greater than 35 nM; in test [3], 5.8 nM.

As for `CC(C)(C)CCNCc1ccc2c(c1)CCN2Cc1ccc(C(N)=O)cc1` [Example 6, 4-{5-[(3,3-Dimethyl-butylamino)-methyl]-2,3-dihydro-indol-1-ylmethyl}-benzamide], the Ki at delta opioid receptor turned out to be 193 nM; on mu opioid receptor it was 20.5 nM; on kappa opioid receptor, 340 nM. The Kb in test [1] is 20.3 nM; in test [2], 21.4 nM; in test [3] it was 4 nM.

`CC(C)CCNCc1ccc2c(c1)CCN2Cc1ccc(C(N)=O)cc1` [Example 5, 4-{5-[(3-Methyl-butylamino)-methyl]-2,3-dihydro-indol-1-ylmethyl}-benzamide]: the Ki at delta opioid receptor stood at 259 nM; on mu opioid receptor, 24.5 nM; on kappa opioid receptor it was 387 nM. The Kb is 24.3 nM in test [1], greater than 42 nM in test [2] and 3.3 nM in test [3].

By Ki is commonly meant a dissociation constant, usually derived from enzyme kinetics or from competition with a known ligand. Low values mean higher affinity, high ones lower affinity. What is called Kb is the affinity of an antagonist, worked out from how it opposes an agonist. Read a low Kb as a more potent antagonist.
